Experimental data taken from article PMC5334609, “Separation and Characterization of Angiotensin I Converting Enzyme (ACE) Inhibitory Peptides from Saurida elongata Proteins Hydrolysate by IMAC-Ni^2+” (Marine Drugs, 2017).
pIC50: −log10 of the molar value. Where a SMILES comes first, the peptide text is derived from it.

Biological target: T1, angiotensin I converting enzyme (ACE) (Oryctolagus cuniculus, UniProt P12822)
T1 construct: ACE (from rabbit lung; 2.0 units/mg of protein); purchased Sigma Chemical Company (St. Louis, MO, USA); host or cells: rabbit lung (tissue-derived)
T1 sequence (P12822 34-1310): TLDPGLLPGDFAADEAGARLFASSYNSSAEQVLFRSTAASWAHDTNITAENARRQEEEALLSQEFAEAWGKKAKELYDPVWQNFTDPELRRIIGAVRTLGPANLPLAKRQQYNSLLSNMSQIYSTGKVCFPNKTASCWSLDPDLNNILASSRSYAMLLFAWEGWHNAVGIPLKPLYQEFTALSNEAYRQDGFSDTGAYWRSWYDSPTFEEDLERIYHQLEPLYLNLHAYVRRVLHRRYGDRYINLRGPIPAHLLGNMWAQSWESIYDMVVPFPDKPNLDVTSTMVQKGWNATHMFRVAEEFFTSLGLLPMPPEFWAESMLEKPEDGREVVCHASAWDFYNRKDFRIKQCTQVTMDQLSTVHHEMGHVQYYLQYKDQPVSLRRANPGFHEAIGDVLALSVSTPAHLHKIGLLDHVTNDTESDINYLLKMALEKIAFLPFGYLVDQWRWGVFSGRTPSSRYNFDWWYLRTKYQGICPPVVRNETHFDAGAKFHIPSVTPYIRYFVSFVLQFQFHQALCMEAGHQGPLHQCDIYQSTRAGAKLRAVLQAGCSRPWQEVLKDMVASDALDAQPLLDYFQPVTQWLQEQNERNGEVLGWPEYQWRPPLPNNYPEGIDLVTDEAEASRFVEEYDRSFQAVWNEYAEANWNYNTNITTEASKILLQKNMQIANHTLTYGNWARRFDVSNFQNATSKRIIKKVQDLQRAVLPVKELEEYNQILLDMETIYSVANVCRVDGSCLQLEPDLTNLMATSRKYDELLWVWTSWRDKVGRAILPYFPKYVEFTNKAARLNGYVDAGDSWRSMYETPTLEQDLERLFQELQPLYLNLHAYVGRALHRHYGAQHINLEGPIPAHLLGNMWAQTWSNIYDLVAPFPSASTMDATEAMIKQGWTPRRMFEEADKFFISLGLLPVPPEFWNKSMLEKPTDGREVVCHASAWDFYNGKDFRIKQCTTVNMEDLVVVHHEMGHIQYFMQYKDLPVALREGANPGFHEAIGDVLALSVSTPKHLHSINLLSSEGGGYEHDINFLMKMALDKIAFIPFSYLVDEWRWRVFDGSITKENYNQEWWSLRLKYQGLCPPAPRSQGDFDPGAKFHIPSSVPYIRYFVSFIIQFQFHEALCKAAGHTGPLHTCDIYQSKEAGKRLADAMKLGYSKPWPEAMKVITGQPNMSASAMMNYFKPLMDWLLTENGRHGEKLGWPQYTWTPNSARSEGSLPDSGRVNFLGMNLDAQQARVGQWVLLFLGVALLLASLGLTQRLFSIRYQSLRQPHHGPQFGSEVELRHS
Experiment: ACE inhibitory activity (IC50 and inhibitory ratio IP)
Format: biochemical
Conditions: ACE from rabbit lung
Method: Lizard fish was purchased from a local market in Nanning, China, during the fishing season. It was identified by engineer Cuican at Beihai Institute of Oceanology. Its muscle was rapidly separated, dried with hot air (90 °C) over 8 h, powdered, and then stored in the cryogenic refrigerator. Agarose (BR) and NiSO4·6H2O (AR) were purchased from Sinopharm Chemical Reagent Co., (Beijing, China). Iminodiacetic acid (IDA) was purchased from Sinopharm Chemical Reagent Co., Ltd. (Beijing, China). ACE (from rabbit lung; 2.0 units/mg of protein) and hippuryl-L-histidyl-L-leucine (HHL) were purchased from the Sigma Chemical Company (St. Louis, MO, USA). All other reagents used were of analytical grade.
The affinity column was equilibrated at a flow rate of 1.5 mL·min^−1 with PBS. […] Fractions with affinity for Ni^2+ ion were eluted and monitored at 280 nm. […] The ACE-inhibitory activity of these fractions were determined, and the inhibitory ratios (IP) were calculated according to Wu et al.. The concentrations of protein were measured by the UV method using a wavelength of 280 nm, and the protein recovery rate was calculated as follows: (1) R=m/M×100% • R—Recovery rate of protein, %; • m—Protein content of the sample eluted from IMAC (IMAC fractions), mg; • M—Protein content of the sample before treatment of IMAC chromatographic procedures, mg.

pIC50 (ACE inhibition, HHL listed as material, inhibitory ratios calculated according to Wu et al. [22]): 4.28 | IP% (inhibitory activity of fractions separated by RP-HPLC) (RP-HPLC fractions of F2 (Zorbax SB C18), inhibitory ratio according to Wu et al. [22], test concentration not given): 73.05%
SMILES: N=C(N)NCCC[C@H](NC(=O)[C@H](Cc1ccc(O)cc1)NC(=O)[C@@H](N)CCCNC(=N)N)C(=O)N1CCC[C@H]1C(=O)O [RYRP, Arg-Tyr-Arg-Pro] (H-RYRP-OH)
